From ChEMBL document CHEMBL4043187, “Synthesis and biological evaluation of N9-cis-cyclobutylpurine derivatives for use as cyclin-dependent kinase (CDK) inhibitors” (Bioorg Med Chem Lett, 2017)

Key:
[1] = biological target: CDK2/Cyclin A2 (Homo sapiens) (UniProt P24941+P20248); test: Inhibition of CDK2/CyclinA (unknown origin) using ULingt-4E-BP as substrate at 25 nM after 1 hr in presence of ATP by fluorescence assay relative to control; type: protein-complex assay
[2] = biological target: Cyclin-dependent kinase 5/CDK5 activator 1 (Homo sapiens) (UniProt Q00535+Q15078); test: Inhibition of CDK5/p35 (unknown origin) using ULingt-4E-BP as substrate at 25 nM after 1 hr in presence of ATP by fluorescence assay relative to control; type: protein-complex assay
Cyclin-dependent kinase 5/CDK5 activator 1 (Homo sapiens), sequence (Q00535 whole entry): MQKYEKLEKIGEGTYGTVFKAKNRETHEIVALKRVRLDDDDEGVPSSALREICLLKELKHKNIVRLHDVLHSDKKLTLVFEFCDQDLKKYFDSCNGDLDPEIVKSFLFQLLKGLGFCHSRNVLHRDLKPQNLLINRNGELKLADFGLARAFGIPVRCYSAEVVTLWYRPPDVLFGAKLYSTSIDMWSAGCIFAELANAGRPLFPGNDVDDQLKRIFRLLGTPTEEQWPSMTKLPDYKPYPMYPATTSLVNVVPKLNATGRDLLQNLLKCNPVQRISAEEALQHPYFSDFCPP
Cyclin-dependent kinase 5/CDK5 activator 1 (Homo sapiens), sequence (Q15078 99-307 partner limits assumed): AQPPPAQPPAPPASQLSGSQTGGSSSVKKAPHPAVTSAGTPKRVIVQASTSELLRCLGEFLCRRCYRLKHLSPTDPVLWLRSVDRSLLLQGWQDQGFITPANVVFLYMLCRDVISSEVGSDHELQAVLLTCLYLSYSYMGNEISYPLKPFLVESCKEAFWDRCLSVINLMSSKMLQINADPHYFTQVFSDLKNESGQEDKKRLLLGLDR

[3] = biological target: Cyclin-dependent kinase 5/CDK5 activator 1 (Homo sapiens, UniProt Q00535); test: Inhibition of CDK5/p35 (unknown origin) using ULingt-4E-BP as substrate after 1 hr in presence of ATP by fluorescence assay; type: protein-complex assay
Cyclin-dependent kinase 5/CDK5 activator 1, sequence (Q00535 whole entry): as the sequence (Q00535 whole entry) above
Cyclin-dependent kinase 5/CDK5 activator 1, sequence (Q15078 whole entry, further chain): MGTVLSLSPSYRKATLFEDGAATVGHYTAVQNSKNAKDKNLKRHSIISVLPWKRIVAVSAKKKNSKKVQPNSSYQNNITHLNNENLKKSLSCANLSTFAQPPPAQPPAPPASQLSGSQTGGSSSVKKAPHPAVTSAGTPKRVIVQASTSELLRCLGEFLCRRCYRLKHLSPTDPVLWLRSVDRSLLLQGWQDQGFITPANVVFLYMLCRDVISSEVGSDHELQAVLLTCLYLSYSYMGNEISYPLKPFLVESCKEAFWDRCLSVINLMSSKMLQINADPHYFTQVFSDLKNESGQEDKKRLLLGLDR

[4] = biological target: CDK2/Cyclin A2 (Homo sapiens, UniProt P24941); test: Inhibition of CDK2/CyclinA (unknown origin) using ULingt-4E-BP as substrate after 1 hr in presence of ATP by fluorescence assay; type: protein-complex assay
[5] = tested on: HCT-116; test: Growth inhibition of human HCT116 cells after 72 hrs by SRB assay; type: functional
[6] = biological target: CDK7/Cyclin H/MNAT1 (Homo sapiens, UniProt P50613); test: Inhibition of human CDK7/CyclinH/MAT1; type: protein-complex assay
CDK7/Cyclin H/MNAT1, sequence (P51946 whole entry): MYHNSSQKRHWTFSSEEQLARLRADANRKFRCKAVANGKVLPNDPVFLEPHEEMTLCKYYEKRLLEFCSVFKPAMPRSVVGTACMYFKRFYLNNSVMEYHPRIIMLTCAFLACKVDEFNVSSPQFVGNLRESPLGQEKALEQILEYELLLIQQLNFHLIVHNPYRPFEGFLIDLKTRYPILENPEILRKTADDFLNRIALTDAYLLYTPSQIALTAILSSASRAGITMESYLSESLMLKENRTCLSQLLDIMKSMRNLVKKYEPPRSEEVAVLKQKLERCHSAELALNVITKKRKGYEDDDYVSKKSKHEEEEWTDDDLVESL
CDK7/Cyclin H/MNAT1, sequence (P50613 whole entry): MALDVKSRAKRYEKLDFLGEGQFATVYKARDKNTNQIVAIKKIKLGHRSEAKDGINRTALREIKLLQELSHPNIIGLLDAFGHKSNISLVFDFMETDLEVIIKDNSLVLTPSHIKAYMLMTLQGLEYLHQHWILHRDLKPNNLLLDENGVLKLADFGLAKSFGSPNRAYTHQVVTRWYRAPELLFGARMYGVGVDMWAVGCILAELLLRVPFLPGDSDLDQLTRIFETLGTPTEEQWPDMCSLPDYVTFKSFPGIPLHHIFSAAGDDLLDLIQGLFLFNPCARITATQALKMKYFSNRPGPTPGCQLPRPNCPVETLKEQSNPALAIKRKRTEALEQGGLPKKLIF
CDK7/Cyclin H/MNAT1, sequence (P51948 whole entry, further chain): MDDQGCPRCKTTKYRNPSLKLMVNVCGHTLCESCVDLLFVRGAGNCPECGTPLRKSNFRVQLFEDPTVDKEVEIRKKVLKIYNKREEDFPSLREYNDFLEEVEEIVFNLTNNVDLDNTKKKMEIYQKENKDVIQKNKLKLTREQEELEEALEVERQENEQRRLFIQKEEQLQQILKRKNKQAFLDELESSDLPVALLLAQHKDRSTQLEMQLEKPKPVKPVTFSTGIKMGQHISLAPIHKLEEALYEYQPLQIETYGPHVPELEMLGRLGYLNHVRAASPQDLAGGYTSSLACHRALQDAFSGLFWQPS

[7] = biological target: CDK9/cyclin T1 (Homo sapiens, UniProt P50750); test: Inhibition of human CDK9/CyclinT1; type: protein-complex assay
CDK9/cyclin T1, sequence (O60563 whole entry): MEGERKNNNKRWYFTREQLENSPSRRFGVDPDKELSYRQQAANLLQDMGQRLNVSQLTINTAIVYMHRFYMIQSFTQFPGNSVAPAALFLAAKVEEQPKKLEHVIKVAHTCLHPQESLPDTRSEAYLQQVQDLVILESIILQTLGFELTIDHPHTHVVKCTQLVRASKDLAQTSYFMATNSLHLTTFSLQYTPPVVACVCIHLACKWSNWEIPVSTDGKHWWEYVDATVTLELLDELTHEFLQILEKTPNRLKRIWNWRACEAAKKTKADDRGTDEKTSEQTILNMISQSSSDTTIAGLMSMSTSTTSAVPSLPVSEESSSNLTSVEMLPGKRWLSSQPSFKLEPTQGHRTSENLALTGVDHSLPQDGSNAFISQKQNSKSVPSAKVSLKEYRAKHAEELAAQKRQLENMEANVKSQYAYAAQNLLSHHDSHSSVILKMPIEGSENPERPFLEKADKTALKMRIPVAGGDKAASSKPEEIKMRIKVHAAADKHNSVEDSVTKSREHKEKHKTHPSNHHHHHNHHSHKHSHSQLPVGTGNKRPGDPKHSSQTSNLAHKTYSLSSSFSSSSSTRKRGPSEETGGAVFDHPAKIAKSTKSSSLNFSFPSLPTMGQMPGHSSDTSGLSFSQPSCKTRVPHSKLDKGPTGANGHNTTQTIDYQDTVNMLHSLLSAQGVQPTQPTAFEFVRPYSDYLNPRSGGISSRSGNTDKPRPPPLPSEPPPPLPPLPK
CDK9/cyclin T1, sequence (P50750 whole entry): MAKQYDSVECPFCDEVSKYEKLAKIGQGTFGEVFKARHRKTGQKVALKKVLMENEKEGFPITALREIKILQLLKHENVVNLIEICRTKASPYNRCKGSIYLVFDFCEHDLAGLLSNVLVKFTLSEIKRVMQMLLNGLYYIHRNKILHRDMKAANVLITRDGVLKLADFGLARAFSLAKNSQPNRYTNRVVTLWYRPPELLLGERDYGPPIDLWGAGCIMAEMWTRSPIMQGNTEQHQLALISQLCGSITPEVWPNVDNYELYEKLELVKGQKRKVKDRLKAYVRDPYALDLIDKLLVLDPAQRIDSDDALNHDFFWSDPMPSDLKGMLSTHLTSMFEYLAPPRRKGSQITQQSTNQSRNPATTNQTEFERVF

[8] = biological target: CDK6/cyclin D3 (Homo sapiens, UniProt Q00534); test: Inhibition of human CDK6/CyclinD3; type: protein-complex assay
CDK6/cyclin D3, sequence (P30281 whole entry): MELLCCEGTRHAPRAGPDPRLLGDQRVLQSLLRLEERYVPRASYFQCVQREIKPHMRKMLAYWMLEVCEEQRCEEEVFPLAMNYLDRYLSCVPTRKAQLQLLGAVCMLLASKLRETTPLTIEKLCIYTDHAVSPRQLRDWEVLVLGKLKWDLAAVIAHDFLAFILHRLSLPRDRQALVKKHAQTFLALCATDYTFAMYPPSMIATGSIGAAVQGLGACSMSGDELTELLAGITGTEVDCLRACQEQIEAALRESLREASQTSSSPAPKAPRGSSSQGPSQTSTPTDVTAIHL
CDK6/cyclin D3, sequence (Q00534 whole entry): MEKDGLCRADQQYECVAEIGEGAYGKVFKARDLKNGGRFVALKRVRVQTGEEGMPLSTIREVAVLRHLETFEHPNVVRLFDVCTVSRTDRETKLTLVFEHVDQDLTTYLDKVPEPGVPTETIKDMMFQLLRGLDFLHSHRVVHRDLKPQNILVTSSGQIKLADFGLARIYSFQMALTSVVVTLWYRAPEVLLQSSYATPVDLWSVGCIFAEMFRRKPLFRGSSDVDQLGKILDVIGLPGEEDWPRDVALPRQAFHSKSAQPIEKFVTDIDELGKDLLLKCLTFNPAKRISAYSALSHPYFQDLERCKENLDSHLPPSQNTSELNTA

[9] = biological target: CDK4/Cyclin D3 (Homo sapiens, UniProt P11802); test: Inhibition of human CDK4/CyclinD3; type: protein-complex assay
CDK4/Cyclin D3, sequence (P11802 whole entry): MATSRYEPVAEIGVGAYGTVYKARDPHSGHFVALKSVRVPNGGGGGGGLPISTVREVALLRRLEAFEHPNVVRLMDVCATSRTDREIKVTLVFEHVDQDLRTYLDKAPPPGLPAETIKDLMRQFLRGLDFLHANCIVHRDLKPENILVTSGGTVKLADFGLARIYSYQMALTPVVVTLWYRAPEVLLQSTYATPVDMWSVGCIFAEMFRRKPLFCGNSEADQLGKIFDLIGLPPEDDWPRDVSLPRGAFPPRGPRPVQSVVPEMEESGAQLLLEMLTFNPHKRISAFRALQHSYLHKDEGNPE
CDK4/Cyclin D3, sequence (P30281 whole entry, further chain): as the sequence (P30281 whole entry) above

[10] = biological target: Cyclin-dependent kinase 1/cyclin B1 (Homo sapiens, UniProt P06493); test: Inhibition of human CDK1/CyclinB; type: protein-complex assay
Cyclin-dependent kinase 1/cyclin B1, sequence (P06493 whole entry): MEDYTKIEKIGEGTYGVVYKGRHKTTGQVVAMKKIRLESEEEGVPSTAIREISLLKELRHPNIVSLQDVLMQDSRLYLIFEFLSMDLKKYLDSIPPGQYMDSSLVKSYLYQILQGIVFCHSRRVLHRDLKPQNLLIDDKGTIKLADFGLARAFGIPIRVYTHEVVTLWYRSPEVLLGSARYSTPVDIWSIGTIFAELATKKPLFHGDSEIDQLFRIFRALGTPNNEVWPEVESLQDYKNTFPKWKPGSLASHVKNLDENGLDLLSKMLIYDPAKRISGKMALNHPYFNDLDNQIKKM
Cyclin-dependent kinase 1/cyclin B1, sequence (P14635 whole entry, further chain): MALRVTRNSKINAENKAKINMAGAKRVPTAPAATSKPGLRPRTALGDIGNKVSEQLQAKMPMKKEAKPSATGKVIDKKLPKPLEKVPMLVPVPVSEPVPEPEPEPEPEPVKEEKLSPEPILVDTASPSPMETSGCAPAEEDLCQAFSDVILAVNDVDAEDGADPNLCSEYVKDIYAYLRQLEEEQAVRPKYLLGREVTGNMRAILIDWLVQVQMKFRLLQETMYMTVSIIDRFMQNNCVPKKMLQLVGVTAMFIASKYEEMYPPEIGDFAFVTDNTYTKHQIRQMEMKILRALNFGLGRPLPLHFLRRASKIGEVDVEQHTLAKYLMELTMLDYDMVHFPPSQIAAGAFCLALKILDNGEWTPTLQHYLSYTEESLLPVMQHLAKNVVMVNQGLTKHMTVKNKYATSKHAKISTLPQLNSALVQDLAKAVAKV

[11] = tested on: MCF7; test: Growth inhibition of human MCF7 cells after 72 hrs by SRB assay; type: functional

| SMILES | inhibition [1] [%] | inhibition [2] [%] | IC50 [3] [nM] | IC50 [4] [nM] | further results |
| --- | --- | --- | --- | --- | --- |
| Cc1cccc(C(=O)N[C@H]2C[C@@H](n3cnc4c(NCc5ccc(Br)cc5)ncnc43)C2)n1 | 64 | 80 |  |  |  |
| Cc1cccc(C(=O)N[C@H]2C[C@@H](n3cnc4c(NCc5ccc(Oc6ccccc6)cc5)ncnc43)C2)n1 | < 50 | < 50 |  |  |  |
| Cc1cccc(C(=O)N[C@H]2C[C@@H](n3cnc4c(NCc5ccc(Cl)c(Cl)c5)ncnc43)C2)n1 |  |  | 34 | 77 |  |
| CN1CCCC1C(=O)N[C@H]1C[C@@H](n2cnc3c(NCc4cccnc4)ncnc32)C1 (some centres undefined) | < 50 | < 50 |  |  |  |
| COc1ccccc1CNc1ncnc2c1ncn2[C@H]1C[C@@H](NC(=O)c2cccc(C)n2)C1 | < 50 | < 50 |  |  |  |
| COc1ccc(C(=O)N[C@H]2C[C@@H](n3cnc4c(NCc5cccnc5)ncnc43)C2)cc1 | < 50 | < 50 |  |  |  |
| Cc1cccc(C(=O)N[C@H]2C[C@@H](n3cnc4c(NCc5cccc(C(F)(F)F)c5)ncnc43)C2)n1 | < 50 | 72 |  |  |  |
| CN(C)c1cccc(C(=O)N[C@H]2C[C@@H](n3cnc4c(NCc5cccnc5)ncnc43)C2)c1 | < 50 | < 50 |  |  |  |
| O=C(N[C@H]1C[C@@H](n2cnc3c(NCc4cccnc4)ncnc32)C1)c1cnccn1 | < 50 | < 50 |  |  |  |
| O=C(N[C@H]1C[C@@H](n2cnc3c(NCc4cccnc4)ncnc32)C1)c1ccccc1 | < 50 | < 50 |  |  |  |
| O=C(N[C@H]1C[C@@H](n2cnc3c(NCc4cccnc4)ncnc32)C1)c1cccnc1 | < 50 | < 50 |  |  |  |
| Cc1cccc(C(=O)N[C@H]2C[C@@H](n3cnc4c(NCc5ccccc5C)ncnc43)C2)n1 | < 50 | < 50 |  |  |  |
| Cc1cccc(C(=O)N[C@H]2C[C@@H](n3cnc4c(NCc5ccc(C(F)(F)F)cc5)ncnc43)C2)n1 | < 50 | 58 |  |  |  |
| Cc1ccc(C(=O)N[C@H]2C[C@@H](n3cnc4c(NCc5cccnc5)ncnc43)C2)cc1C | < 50 | < 50 |  |  |  |
| COc1ccc(Nc2ncnc3c2ncn3[C@H]2C[C@@H](NC(=O)c3cccc(C)n3)C2)cc1 | < 50 | 63 |  |  |  |
| O=C(N[C@H]1C[C@@H](n2cnc3c(NCc4cccnc4)ncnc32)C1)C1CCOCC1 | < 50 | < 50 |  |  |  |

| SMILES | inhibition [1] [%] | inhibition [2] [%] | IC50 [3] [nM] | IC50 [4] [nM] | further results |
| --- | --- | --- | --- | --- | --- |
| CS(=O)(=O)N1CCC(C(=O)N[C@H]2C[C@@H](n3cnc4c(NCc5cccnc5)ncnc43)C2)CC1 | 62 | 48 |  |  |  |
| O=C(N[C@H]1C[C@@H](n2cnc3c(NCc4cccnc4)ncnc32)C1)c1cccc(-c2ccccc2)n1 |  |  | 31 | 38 |  |
| O=C(N[C@H]1C[C@@H](n2cnc3c(NCc4cccnc4)ncnc32)C1)c1cccc(Cl)c1Cl | < 50 | < 50 |  |  |  |
| COc1ccc(CNc2ncnc3c2ncn3[C@H]2C[C@@H](NC(=O)c3cccc(C)n3)C2)cc1 | 57 | 81 |  |  |  |
| Cc1cccc(C(=O)N[C@H]2C[C@@H](n3cnc4c(NCc5ccc(F)c(F)c5)ncnc43)C2)n1 |  |  | 13 | 29 |  |
| O=C(N[C@H]1C[C@@H](n2cnc3c(NCc4cccnc4)ncnc32)C1)c1c(F)cccc1F | 78 | 57 |  |  |  |
| O=C(N[C@H]1C[C@@H](n2cnc3c(NCc4cccnc4)ncnc32)C1)c1ccncc1 | < 50 | < 50 |  |  |  |
| O=C(N[C@H]1C[C@@H](n2cnc3c(NCc4cccnc4)ncnc32)C1)c1cccc(C(F)(F)F)n1 |  |  | 23 | 14 |  |
| O=C(N[C@H]1C[C@@H](n2cnc3c(NCc4cccnc4)ncnc32)C1)c1c(Cl)cccc1Cl | 82 | 64 |  |  |  |
| Cc1cccc(C(=O)N[C@H]2C[C@@H](n3cnc4c(NCc5ccc(C#N)cc5)ncnc43)C2)n1 | < 50 | < 50 |  |  |  |
| O=C(CC1CCCCC1)N[C@H]1C[C@@H](n2cnc3c(NCc4cccnc4)ncnc32)C1 | < 50 | < 50 |  |  |  |
| Cc1cccc(C(=O)N[C@H]2C[C@@H](n3cnc4c(NCc5ccc(N(C)C)cc5)ncnc43)C2)n1 | < 50 | 53 |  |  |  |
| Cc1cccc(C(=O)N[C@H]2C[C@@H](n3cnc4c(NCc5ccc(OC(F)(F)F)cc5)ncnc43)C2)n1 | < 50 | 54 |  |  |  |
| COc1cc(Cl)ccc1C(=O)N[C@H]1C[C@@H](n2cnc3c(NCc4cccnc4)ncnc32)C1 | < 50 | < 50 |  |  |  |
| COc1ccc(Nc2ncnc3c2ncn3[C@H]2C[C@@H](NC(=O)c3cccc(C)n3)C2)cc1OC |  |  | 94 | 54 |  |

More lines, main results first:

| inhibition [1] [%] | inhibition [2] [%] | IC50 [3] [nM] | IC50 [4] [nM] | SMILES | further results |
| --- | --- | --- | --- | --- | --- |
| 62 | 48 |  |  | Cc1cccc(C(=O)N[C@H]2C[C@@H](n3cnc4c(NC5CCN(S(C)(=O)=O)CC5)ncnc43)C2)n1 |  |
|  |  | 30 | 160 | CC(=O)N[C@H]1CC[C@H](Nc2ncnc3c2ncn3[C@H]2C[C@@H](NC(=O)c3cccc(C)n3)C2)CC1 |  |
|  |  | 90 | 376 | Cc1cccc(C(=O)N[C@H]2C[C@@H](n3cnc4c(NCC5CCN(C(=O)OC(C)(C)C)CC5)ncnc43)C2)n1 |  |
| < 50 | < 50 |  |  | Cc1cccc(C(=O)N[C@H]2C[C@@H](n3cnc4c(Nc5cccc(F)c5)ncnc43)C2)n1 |  |
|  |  | 66 | 95 | Cc1cccc(C(=O)N[C@H]2C[C@@H](n3cnc4c(NC5CCN(C(=O)OC(C)(C)C)CC5)ncnc43)C2)n1 |  |
|  |  | 30 | 5.4 | Cc1cccc(C(=O)N[C@H]2C[C@@H](n3cnc4c(NCc5ccc(F)cc5)ncnc43)C2)n1 |  |
|  |  | > 500 |  | Cc1cccc(C(=O)N[C@H]2C[C@@H](n3cnc4c(N[C@H]5CC[C@H](O)CC5)ncnc43)C2)n1 |  |
|  |  | 162 | 379 | Cc1cccc(C(=O)N[C@H]2C[C@@H](n3cnc4c(NC5CCNCC5)ncnc43)C2)n1 |  |
| < 50 | 59 |  |  | Cc1cccc(C(=O)N[C@H]2C[C@@H](n3cnc4c(NCc5ccccc5Cl)ncnc43)C2)n1 |  |
|  |  | 25 | 49 | Cc1cccc(C(=O)N[C@H]2C[C@@H](n3cnc4c(NCC5CCCCC5)ncnc43)C2)n1 |  |
|  |  | > 1000 |  | Cc1cccc(C(=O)N[C@H]2C[C@@H](n3cnc4c(NC5CCNC5)ncnc43)C2)n1 (some centres undefined) |  |
| < 50 | < 50 |  |  | Cc1cccc(C(=O)N[C@H]2C[C@@H](n3cnc4c(NCc5ccncc5)ncnc43)C2)n1 |  |
|  |  | > 1000 | > 1000 | Cc1cccc(C(=O)N[C@H]2C[C@@H](n3cnc4c(Nc5ccncc5)ncnc43)C2)n1 |  |
|  |  | 6 | 15 | Cc1cccc(C(=O)N[C@H]2C[C@@H](n3cnc4c(NCc5cccc(F)c5)ncnc43)C2)n1 |  |
|  |  | 27 | 112 | CC(=O)N[C@H]1CC[C@@H](Nc2ncnc3c2ncn3[C@H]2C[C@@H](NC(=O)c3cccc(C)n3)C2)CC1 |  |
|  |  | > 1000 |  | Cc1cccc(C(=O)N[C@H]2C[C@@H](n3cnc4c(NC5CCN(C)CC5)ncnc43)C2)n1 |  |
| < 50 | 60 |  |  | Cc1cccc(C(=O)N[C@H]2C[C@@H](n3cnc4c(Nc5cccc(Cl)c5)ncnc43)C2)n1 |  |
| 49 | 54 |  |  | Cc1cccc(C(=O)N[C@H]2C[C@@H](n3cnc4c(NCc5ccccn5)ncnc43)C2)n1 |  |
|  |  | 10 | 16 | Cc1cccc(C(=O)N[C@H]2C[C@@H](n3cnc4c(NCc5cccnc5)ncnc43)C2)n1 |  |
|  |  | 179 | 474 | CC(=O)N1CCC(Nc2ncnc3c2ncn3[C@H]2C[C@@H](NC(=O)c3cccc(C)n3)C2)CC1 |  |
|  |  | 2.3 | 7.2 | Cc1cccc(C(=O)N[C@H]2C[C@@H](n3cnc4c(NCc5cccc(Cl)c5)ncnc43)C2)n1 | GI [5]: 2.14 µM; IC50 [6]: 319 nM; IC50 [7]: 27 nM; IC50 [8]: > 1000 nM; IC50 [9]: > 1000 nM; IC50 [10]: 23 nM; GI [11]: 2.49 µM |
|  |  | 67 | 18 | COc1cccc(Nc2ncnc3c2ncn3[C@H]2C[C@@H](NC(=O)c3cccc(C)n3)C2)c1 |  |
|  |  | > 500 |  | Cc1cccc(C(=O)N[C@H]2C[C@@H](n3cnc4c(NC5CCN(C(=O)OC(C)(C)C)C5)ncnc43)C2)n1 (some centres undefined) |  |
| < 50 | 55 |  |  | Cc1cccc(C(=O)N[C@H]2C[C@@H](n3cnc4c(NCc5ccccc5F)ncnc43)C2)n1 |  |
|  |  | 4.8 | 2.1 | Cc1cccc(C(=O)N[C@H]2C[C@@H](n3cnc4c(NCc5cccc(Br)c5)ncnc43)C2)n1 | GI [5]: 2.37 µM; IC50 [6]: 359 nM; IC50 [7]: 19 nM; IC50 [8]: > 1000 nM; IC50 [9]: 611 nM; IC50 [10]: 24 nM; GI [11]: 2.43 µM |
|  |  | 71 | 48 | Cc1cccc(C(=O)N[C@H]2C[C@@H](n3cnc4c(NCC5CCNCC5)ncnc43)C2)n1 |  |
